From ChEMBL document CHEMBL3045194, “Neocryptolepine analogues containing N-substituted side-chains at C-11: synthesis and antischistosomicidal activity” (Med Chem Res, 2012)

Each compound was assayed on Schistosoma mansoni (assay: Antischistosomicidal activity against Schistosoma mansoni egyptian strain assessed as worm mortality after 5 days by stereomicroscopy). Conditions: not given.
Format: functional, organism-based

Row | Structure (SMILES) | IC50 [uM/ml]
1 | Cn1c2nc3ccccc3c-2c(NCCc2c[nH]c3ccccc23)c2ccccc21 | 2.7
2 | CCN(CC)CCCC(C)Nc1c2c3ccccc3nc-2n(C)c2ccc(Cl)cc12 (stereo not drawn) | 11.74
3 | Cn1c2nc3ccccc3c-2c(Nc2ccc(C(F)(F)F)cc2)c2ccccc21 | 3.73
4 | Cn1c2nc3ccccc3c-2c(Nc2ccccc2)c2ccccc21 | 3.07
5 | CN1CCN(c2c3c4ccccc4nc-3n(C)c3ccc(C(F)(F)F)cc23)CC1 | 4.61
6 | O=C(C1CCCCC1)N1CC(=O)N2CCc3ccccc3C2C1 (stereo not drawn) [PRAZIQUANTEL] | 0.21
7 | Cn1c2nc3ccccc3c-2c(NCCCN2CCN(CCCNc3c4c5ccccc5nc-4n(C)c4ccc(Cl)cc34)CC2)c2cc(Cl)ccc21 | 3.42

Same assay, conditions: Schistosoma mansoni, egyptian strain, 120 h

Row | Structure (SMILES) | IC90 [µM]
8 | Cn1c2nc3ccccc3c-2c(NCCc2c[nH]c3ccccc23)c2ccccc21 | 3.95
9 | CCN(CC)CCCC(C)Nc1c2c3ccccc3nc-2n(C)c2ccc(Cl)cc12 (stereo not drawn) | 16.8
10 | Cn1c2nc3ccccc3c-2c(Nc2ccc(C(F)(F)F)cc2)c2ccccc21 | 4.81
11 | Cn1c2nc3ccccc3c-2c(Nc2ccccc2)c2ccccc21 | 4.3
12 | CN1CCN(c2c3c4ccccc4nc-3n(C)c3ccc(C(F)(F)F)cc23)CC1 | 6.05
13 | O=C(C1CCCCC1)N1CC(=O)N2CCc3ccccc3C2C1 (stereo not drawn) [PRAZIQUANTEL] | 0.37
14 | Cn1c2nc3ccccc3c-2c(NCCCN2CCN(CCCNc3c4c5ccccc5nc-4n(C)c4ccc(Cl)cc34)CC2)c2cc(Cl)ccc21 | 5.1

The compounds below were run on Schistosoma mansoni (assay: Antischistosomicidal activity against Schistosoma mansoni egyptian strain assessed as worm mortality at 5 ug/ml after 5 days by stereomicroscopy). Conditions: 120 h.
Format: functional

Row | Structure (SMILES) | mortality at 5 µg/mL [%]
15 | Cn1c2nc3ccccc3c-2c(Nc2ccc(CCO)cc2)c2cc(Br)ccc21 | 91.7
16 | Cn1c2nc3ccccc3c-2c(NCCCO)c2cc(Br)ccc21 | 66.7
17 | Cn1c2nc3ccccc3c-2c(Cl)c2cc(C(F)(F)F)ccc21 | 91.7
18 | Cn1c2nc3ccccc3c-2c(NCCCN2CCN(CCCNc3c4c5ccccc5nc-4n(C)c4ccc(C(F)(F)F)cc34)CC2)c2cc(C(F)(F)F)ccc21 | 8.3
19 | Cn1c2nc3ccccc3c-2c(NCCc2c[nH]c3ccccc23)c2ccccc21 | 100
20 | Clc1ccc2nc3[nH]c4ccccc4c3c(Cl)c2c1 | 0
21 | Cn1c2nc3ccccc3c-2c(N2CCN(CCO)CC2)c2cc(C(F)(F)F)ccc21 | 25
22 | Cn1c2nc3ccccc3c-2cc2ccccc21 [NEOCRYPTOLEPINE] | 5
23 | CCN(CC)CCCC(C)Nc1c2c3ccccc3nc-2n(C)c2ccc(Cl)cc12 (stereo not drawn) | 100
24 | Cn1c2nc3ccccc3c-2c(Nc2ccc(C(F)(F)F)cc2)c2ccccc21 | 100
25 | Cn1c2nc3ccccc3c-2c(Nc2ccccc2)c2ccccc21 | 100
26 | Cn1c2nc3ccccc3c-2c(N2CCOCC2)c2ccccc21 | 66.7
27 | Cn1c2nc3ccccc3c-2c(Cl)c2ccccc21 [11-CHLORONEOCRYPTOLEPINE] | 75
28 | CN1CCN(c2c3c4ccccc4nc-3n(C)c3ccc(C(F)(F)F)cc23)CC1 | 100
29 | CN1CCN(c2c3c4ccccc4nc-3n(C)c3ccccc23)CC1 | 0
30 | O=C(C1CCCCC1)N1CC(=O)N2CCc3ccccc3C2C1 (stereo not drawn) [PRAZIQUANTEL] | 100
31 | Cn1c2nc3ccccc3c-2c(Cl)c2cc(Br)ccc21 | 25
32 | Cn1c2nc3ccccc3c-2c(Nc2ccc(CCO)cc2)c2ccccc21 | 58.3
33 | Cn1c2nc3ccccc3c-2c(NCCCN2CCN(CCCNc3c4c5ccccc5nc-4n(C)c4ccc(Cl)cc34)CC2)c2cc(Cl)ccc21 | 100
